Legend:
[1] = biological target: AAK1 (Homo sapiens, UniProt Q2M2I8); test: ITC validation, AAK1; assay type: binding; conditions: for Kd / KD: ITC; for LE: LE=1/N⋅1.4⋅−log(KD); for LE / LELP: AAK1; for LELP: LELP= logP/LE
Procedure: The protein was buffer exchanged into 50 mM HEPES, 100 mM NaCl, 2 mM MgCl2, and 1 mM TCEP at pH 7.4. The protein was concentrated to 50–100 µM, and DMSO was added to a final concentration of 5% (^V/V). The fragments were dissolved in DMSO to yield a 100 mM stock solution, which was further diluted with buffer to yield a 5 mM solution also containing 5% (^V/V) DMSO. A MicroCal iTC200 (Malvern) instrument was used with the measuring cell set to 25°C, while the cooling jacket was set to 15°C. After a 120 s initial delay following temperature equilibration, a first injection with 0.5 µl over 2 s was done. […] The measurement was conducted using a needle stirring speed of 1,000 rpm and a reference heat rate of 10 μcal/s. Experiments were aborted, when the measuring cell was unable to reach a heat rate greater than 9 μcal/s during equilibration. Affinities were averaged from duplicates.

[2] = GSH stability assay (HPLC); assay type: physicochemical; conditions: t1/2 > 20 h defined as sufficiently stable
Procedure: A 500 µM fragment solution in PBS buffer pH 7.4, 10% acetonitrile and 200 µM indoprofen as an internal standard, was added to 10 mM GSH solution in a 1:2 ratio. The reaction temperature was 40°C. […] The reaction of fragments with GSH was determined by measuring the decreasing area under the curve (AUC) of the compound relative to the internal standard indoprofen. The gradient was chosen depending on the polarity of fragments to be either one of the following: […]

[3] = biological target: T1, IDO1 (Homo sapiens, UniProt P14902); test: ITC validation, IDO1; assay type: binding
T1 construct: His-tag of pET15b with TEV site (thrombin site replaced) (cleaved yes); made in house; host or cells: E. coli Rosetta 2 (DE3) pLysS
T1 sequence (P14902 whole entry): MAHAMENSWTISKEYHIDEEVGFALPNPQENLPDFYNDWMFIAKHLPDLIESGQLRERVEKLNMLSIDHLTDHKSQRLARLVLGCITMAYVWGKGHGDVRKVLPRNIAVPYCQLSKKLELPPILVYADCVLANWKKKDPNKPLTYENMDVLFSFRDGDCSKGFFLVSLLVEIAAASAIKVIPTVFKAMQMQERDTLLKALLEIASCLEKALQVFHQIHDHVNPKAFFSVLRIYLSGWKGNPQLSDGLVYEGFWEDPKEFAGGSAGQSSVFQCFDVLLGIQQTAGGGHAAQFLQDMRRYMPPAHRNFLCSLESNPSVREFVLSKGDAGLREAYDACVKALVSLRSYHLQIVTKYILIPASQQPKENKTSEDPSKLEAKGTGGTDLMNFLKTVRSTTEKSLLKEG
Procedure: The protein was buffer exchanged into 50 mM HEPES, 100 mM NaCl, 2 mM MgCl2, and 1 mM TCEP at pH 7.4. The protein was concentrated to 50–100 µM, and DMSO was added to a final concentration of 5% (^V/V). The fragments were dissolved in DMSO to yield a 100 mM stock solution, which was further diluted with buffer to yield a 5 mM solution also containing 5% (^V/V) DMSO. A MicroCal iTC200 (Malvern) instrument was used with the measuring cell set to 25°C, while the cooling jacket was set to 15°C. After a 120 s initial delay following temperature equilibration, a first injection with 0.5 µl over 2 s was done. Nineteen injections with 2 µl over 4 s were performed every 180 s ([Ruhmann et al., 2015]). The measurement was conducted using a needle stirring speed of 1,000 rpm and a reference heat rate of 10 μcal/s. Experiments were aborted, when the measuring cell was unable to reach a heat rate greater than 9 μcal/s during equilibration. Affinities were averaged from duplicates.

[4] = biological target: AAK1 (121-471) (Homo sapiens, UniProt Q2M2I8); test: STD-NMR fragment screening, AAK1; assay type: binding; conditions: 1 = hit, 0 = no hit
AAK1 (121-471), sequence (Q2M2I8 46-315 limits assumed): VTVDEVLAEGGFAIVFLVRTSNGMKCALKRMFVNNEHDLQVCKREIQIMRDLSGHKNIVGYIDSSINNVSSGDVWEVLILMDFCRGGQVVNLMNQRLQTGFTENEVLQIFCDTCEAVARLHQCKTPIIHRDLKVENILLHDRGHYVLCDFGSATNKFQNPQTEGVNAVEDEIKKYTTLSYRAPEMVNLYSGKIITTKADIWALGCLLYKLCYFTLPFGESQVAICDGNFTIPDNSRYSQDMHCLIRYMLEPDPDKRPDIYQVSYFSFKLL
Summary of the method: (§1)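 Saturation-transfer difference NMR was run at 25°C and 700 MHz with 20 µM protein, two fragments at 1 mM each, and 10% DMSO-d6. On-resonance saturation was at 0.5–0.6 ppm and off-resonance at 40 ppm, with a 3 s Gaussian-pulse train. A hit required a difference-spectrum peak at least three times the local noise.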

[5] = biological target: T2, CAMK1G (1-320) (Homo sapiens, UniProt Q96NX5); test: STD-NMR fragment screening, CAMK1G; assay type: binding; conditions: 1 = hit, 0 = no hit
T2 construct: made in house; host or cells: E. coli BL21 (DE3) pLysS
T2 sequence (Q96NX5 1-320): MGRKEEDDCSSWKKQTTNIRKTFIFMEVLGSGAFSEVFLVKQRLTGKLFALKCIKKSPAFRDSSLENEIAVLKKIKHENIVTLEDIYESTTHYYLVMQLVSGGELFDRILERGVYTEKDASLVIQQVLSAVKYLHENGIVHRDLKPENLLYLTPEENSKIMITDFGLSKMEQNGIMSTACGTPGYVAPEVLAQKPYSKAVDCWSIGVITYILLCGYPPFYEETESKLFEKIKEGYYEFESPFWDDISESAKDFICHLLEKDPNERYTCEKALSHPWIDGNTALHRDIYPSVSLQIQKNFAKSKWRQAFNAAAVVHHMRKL
Summary of the method: as §1

[6] = biological target: T3, IDO1 (1-435) (Homo sapiens, UniProt P14902); test: STD-NMR fragment screening, IDO1; assay type: binding; conditions: 1 = hit, 0 = no hit
T3 construct: His-tag of pET15b with TEV site (thrombin site replaced) (cleaved yes); made in house; host or cells: E. coli Rosetta 2 (DE3) pLysS
T3 sequence (P14902 whole entry, the tested form may be a part): as the sequence (P14902 whole entry) above
Summary of the method: as §1

[7] = biological target: T4, DOT1L (1-416) (Homo sapiens, UniProt Q8TEK3); test: STD-NMR fragment screening, DOT1L; assay type: binding; conditions: 1 = hit, 0 = no hit
T4 construct: made in house; host or cells: E. coli BL21 (DE3) pLysS
T4 sequence (Q8TEK3 1-416): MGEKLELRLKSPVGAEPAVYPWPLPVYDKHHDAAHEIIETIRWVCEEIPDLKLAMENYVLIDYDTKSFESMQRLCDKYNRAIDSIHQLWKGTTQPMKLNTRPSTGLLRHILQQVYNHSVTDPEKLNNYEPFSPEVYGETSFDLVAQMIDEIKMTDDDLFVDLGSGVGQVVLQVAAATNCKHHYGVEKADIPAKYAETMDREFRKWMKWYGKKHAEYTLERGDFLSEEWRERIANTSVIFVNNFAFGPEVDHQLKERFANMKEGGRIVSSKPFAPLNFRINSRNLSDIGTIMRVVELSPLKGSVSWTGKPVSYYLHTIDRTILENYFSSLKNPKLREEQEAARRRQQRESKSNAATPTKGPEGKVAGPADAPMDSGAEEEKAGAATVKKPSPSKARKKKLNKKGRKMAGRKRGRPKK
Summary of the method: as §1

[8] = 25°C, 5% DMSO, pH 7.4, duplicates

AAK1, sequence (Q2M2I8 46-315 limits assumed): as the sequence (Q2M2I8 46-315 limits assumed) above

Structure (SMILES)	AAK1 (STD-NMR hit flag) [4]	CAMK1G (STD-NMR hit flag) [5]	IDO1 (STD-NMR hit flag) [6]	DOT1L (STD-NMR hit flag) [7]	also measured
Oc1nc2nc(Cl)ccc2[nH]1 [Fragment 0474]	–	–	–	–	Kd [1, 8]: 180 µM; LE [1]: 0.48; LELP [1]: 1.90; stability with GSH (in words) [2]: sufficiently stable
Cn1c(=O)c2[nH]c(Cl)nc2n(C)c1=O [Fragment 1216]	–	–	–	–	Kd ([3]; ITC, 25°C, 5% DMSO, pH 7.4, duplicates): 390 µM; LE ([3]; LE=1/N⋅1.4⋅−log(KD), IDO1): 0.34; LELP ([3]; LELP= logP/LE, IDO1): −1.92; stability with GSH (in words) [2]: sufficiently stable
Clc1cccc2cc[nH]c12 [Fragment A6]	–	–	–	–	Kd [1, 8]: 170 µM
Clc1ncnc2ccsc12 [Fragment A5]	–	–	–	–	KD [1, 8]: completely abolished the affinity
Clc1nccc2cc[nH]c12 [Fragment A2]	–	–	–	–	Kd [1, 8]: 60 µM
c1cc2cc[nH]c2cn1 [Fragment A3]	–	–	–	–	KD [1, 8]: completely abolished the affinity; Kd ([1]; SAR analogs of 9595): > 1000 µM
Clc1ncnc2ccoc12 [Fragment A4]	–	–	–	–	Kd [1, 8]: 302 µM
Clc1ccnc2cc[nH]c12 [Fragment A1]	–	–	–	–	Kd [1, 8]: 50 µM
Nc1c(Cl)ccc2nonc12 [Fragment 1217]	–	–	–	–	stability with GSH (in words) [2]: sufficiently stable
Nc1c(Cl)ccc(O)c1Cl [Fragment 0471]	–	–	–	–	Kd [1, 8]: 90 µM; LE [1]: 0.57; LELP [1]: 4.03
NS(=O)(=O)c1cc(C(=O)O)ccc1Cl [Fragment B02291263]	0	0	0	0	–
Nc1c(Cl)ccc(O)c1Cl [Fragment B02290471]	1	0	0	0	–
Clc1ccc(CN2CCNCC2)cn1 [Fragment B02290121]	0	0	0	0	–
CN(C)S(=O)(=O)n1nccc1Br [Fragment B02290660]	1	0	0	1	–
CS(=O)(=O)c1ncc(Cl)c(C(=O)O)n1 [Fragment B02291223]	0	0	0	0	–
Cc1nn(CC(=O)O)c(C)c1Cl [Fragment B02291243]	0	1	1	0	–
Cc1ccc(Cl)c(CN)c1F [Fragment B02290525]	0	0	0	0	–

Structure (SMILES)	AAK1 (STD-NMR hit flag) [4]	CAMK1G (STD-NMR hit flag) [5]	IDO1 (STD-NMR hit flag) [6]	DOT1L (STD-NMR hit flag) [7]	also measured
O=C(O)c1nccc(Cl)c1Cl [Fragment B02290659]	0	0	0	0	–
O=C(O)c1n[nH]cc1Br [Fragment B02290463]	0	0	0	0	–
COCn1nc(Br)nc1C(N)=O [Fragment B02290403]	1	0	0	0	–
Cn1c2nc(Br)nc-2c(O)n(C)c1=O [Fragment B02291266]	1	1	1	0	–
Brc1cnc2[nH]nnc2c1 [Fragment B02290482]	0	0	0	0	–
Cn1c(Cl)cc(=O)n(C)c1=O [Fragment B02290465]	1	0	0	0	–
O=S(=O)(CCO)c1n[nH]c(Cl)n1 [Fragment B02290402]	0	0	0	0	–
Cc1nn(CCO)c(N)c1I [Fragment B02291250]	0	1	0	0	–
Brc1nnc2n1CCNC2 [Fragment B02290462]	0	0	0	0	–
O=c1cc(O)c(Cl)c[nH]1 [Fragment B02297427]	0	0	1	0	–
Clc1ncnc2[nH]ccc12 [Fragment B02291254]	1	1	1	0	–
Cc1nn(CCN)cc1Cl [Fragment B02291152]	0	0	0	0	–
Cn1nc(Br)nc1NN [Fragment B02290120]	0	1	0	1	–
Brc1ccc(C2CNCCN2)s1 (stereo not shown) [Fragment B02297408]	0	0	0	0	–
Nc1cnccc1I [Fragment B02289607]	1	0	0	0	–
Cc1c(Cl)cnc(N)c1Cl [Fragment B02297405]	1	1	0	1	–
Cc1ccc(N)c(Cl)n1 [Fragment B02289616]	1	0	0	0	–
